Experimental data reported in publication PMC9555310, “Novel inhibitors and activity-based probes targeting serine proteases” (Frontiers in Chemistry, 2022).

Tests used:
trypsin = target: T1, trypsin (Sus scrofa, UniProt P00761); experiment: Activity-based profiling of trypsin (SDS-PAGE, streptavidin-HRP western blot); format: binding, porcine; conditions: 50 μM ABP, 30 min, 37°C; band of apparent molecular weight 23 kDa
T1 construct: purchased Sigma-Aldrich; host or cells: porcine pancreas
Description: (§1) Samples of recombinant protease (trypsin, plasmin, thrombin, chymotrypsin, or HNE, as indicated in the relevant figure legends) were treated with each of the newly synthesized compounds at a concentration of 50 μM, for 30 min, at 37°C. A control sample (no ABP) was prepared by treating the recombinant protease with solvent vehicle (DMF) only, used to prepare the stock solution of each ABP. Samples were also pre-treated (±90°C for 30 min) before being incubated with each putative ABP. With trypsin and thrombin, further samples were prepared where Z-Arg^P-(OPh)2 or NAP559, respectively, was added 30 min prior to the addition of the ABP under examination. All treated samples were then denatured with SDS containing reducing treatment buffer (10 min at 95°C), followed by resolution by SDS-PAGE and subjected to Western blotting. Resolved proteins were then transferred onto the nitrocellulose membrane and labeled with streptavidin-HRP. […]
(§2) Following transfer, the extra protein binding sites on the membrane were blocked by addition of 3% (w/v) BSA in TBST (20 mM Tris, 137 mM NaCl, 1% (v/v) Tween 20, pH 7.6) and agitated gently at room temperature for 30 minutes. The biotin-labelled proteases were then detected by addition of Streptavidin-HRP (Vector Laboratories) in 3% (w/v) BSA in TBST at a concentration of 1:20000, for 1 hour at room temperature. […]

[1] = target: T2, elastase-like proteases (NE) in CF Sol samples (Homo sapiens, UniProt P08246); experiment: Activity-based profiling of CF Sol samples (SDS-PAGE, streptavidin-HRP western blot); format: binding; conditions: 50 μM, 30 min, 37°C; band ∼29 kDa
T2 construct: from tissue; host or cells: Cystic Fibrosis (CF) Sol samples 26w and 41w from patients
T2 sequence (P08246 30-247 limits assumed): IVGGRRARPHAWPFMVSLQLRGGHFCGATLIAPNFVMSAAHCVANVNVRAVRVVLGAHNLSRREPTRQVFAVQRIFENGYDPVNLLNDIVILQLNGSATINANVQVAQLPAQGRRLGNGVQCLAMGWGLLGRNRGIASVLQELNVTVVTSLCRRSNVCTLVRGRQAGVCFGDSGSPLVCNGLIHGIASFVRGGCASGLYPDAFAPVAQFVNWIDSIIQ
Description: Samples of recombinant protease (trypsin, plasmin, thrombin, chymotrypsin, or HNE, as indicated in the relevant figure legends) were treated with each of the newly synthesized compounds at a concentration of 50 μM, for 30 min, at 37°C. A control sample (no ABP) was prepared by treating the recombinant protease with solvent vehicle (DMF) only, used to prepare the stock solution of each ABP. Samples were also pre-treated (±90°C for 30 min) before being incubated with each putative ABP. With trypsin and thrombin, further samples were prepared where Z-Arg^P-(OPh)2 or NAP559, respectively, was added 30 min prior to the addition of the ABP under examination. All treated samples were then denatured with SDS containing reducing treatment buffer (10 min at 95°C), followed by resolution by SDS-PAGE and subjected to Western blotting. Resolved proteins were then transferred onto the nitrocellulose membrane and labeled with streptavidin-HRP. The ABP–protease complex was then visualized following treatment with Luminata Forte HRP substrate.
(§3) FIGURE 7 Activity Based Profiling of serine proteases by peptide N-Alkyl glycine carbamates. […] CF Sol (sample 26w) was used at a final concentration of 2.5% (v/v), and the level of NE contained therein was measured using Succinyl-Ala-Ala-Pro-Val-NHMec (50 μM), in the absence (-- o --) and presence (-- o --) of NAP800 (50 μM). […]

chymotrypsin = target: T3, chymotrypsin (Bos taurus, UniProt P00766); experiment: Activity-based profiling of chymotrypsin (SDS-PAGE, streptavidin-HRP western blot); format: binding, bovine; conditions: 50 μM ABP, 30 min, 37°C; blocked by heat inactivation
T3 construct: purchased Sigma-Aldrich (supplement); Calbiochem; host or cells: bovine pancreas
Description: as §1, with “examination.” for “examination. All treated samples were then denatured with SDS containing reducing treatment buffer (10 min at 95°C), followed by resolution by SDS-PAGE and subjected to Western blotting. Resolved proteins were then transferred onto the nitrocellulose membrane and labeled with streptavidin-HRP.”
as §3, §2

T1 sequence (P00761 9-231): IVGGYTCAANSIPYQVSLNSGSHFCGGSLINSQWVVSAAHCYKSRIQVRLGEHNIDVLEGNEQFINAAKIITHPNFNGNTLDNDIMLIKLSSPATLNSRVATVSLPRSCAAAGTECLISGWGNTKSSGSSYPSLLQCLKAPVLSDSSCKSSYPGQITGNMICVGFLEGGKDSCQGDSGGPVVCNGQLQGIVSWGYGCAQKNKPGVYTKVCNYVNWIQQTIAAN

NCCCCN(CC(=O)NCC(=O)NCC(=O)NCCCOCCOCCOCCCNC(=O)CCCCC1SCC2NC(=O)NC21)C(=O)ON1C(=O)CCC1=O (stereo not drawn) [NAP830, Succinimidoyl-CO-NLys-Gly-Gly-PEG-Biotin]
labelling of trypsin by ABP (western blot) (trypsin): enabled the active site labeling and detection of the protease

CC(C)N(CC(=O)NCC(=O)NCC(=O)NCCCOCCOCCOCCCNC(=O)CCCCC1SCC2NC(=O)NC21)C(=O)ON1C(=O)CCC1=O (stereo not drawn) [NAP800, Succinimidoyl-CO-NVal-Gly-Gly-PEG-Biotin]
labelling of elastase-like proteases in CF Sol (western blot) [1]: detection of a diffuse band in two CF Sol samples (26w and 41w)

O=C(CCCCC1SCC2NC(=O)NC21)NCCCOCCOCCOCCCNC(=O)CNC(=O)CNC(=O)CN(Cc1ccccc1)C(=O)ON1C(=O)CCC1=O (stereo not drawn) [NAP849, Succinimidoyl-CO-NPhe-Gly-Gly-PEG-Biotin]
labelling of chymotrypsin by ABP (western blot) (chymotrypsin): detection of a strong band corresponding to the molecular weight of chymotrypsin
